Eight molecules from ChEMBL document CHEMBL1201862, “PubChem BioAssay data set” (2004) can be followed below.

Test systems include ACHN; COLO 205; EKVX; HCC 2998; HCT-15; HL-60; HT-29; M14; MCF7; MDA-MB-231; MDA-N; NCI-H460; NCI-H522; OVCAR-4; PC-3; SF-268; SNB-75; TK-10; UACC-257.
What all share (assay): inhibition of tumour cell growth, NCI panel, 48 h

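Briefly, cells in 96-well plates were exposed to five compound concentrations for 48 h, and endpoints were estimated by linear interpolation. GI50 = concentration required for 50% inhibition of growth.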 Activity calls are given as the source filed them. No stated cut-off is given here; in the data, active = GI50 up to about 1.1 µM and inactive = higher.

In the case of `CC1=C(O)C(=O)C[C@]2(C)[C@H]3CC=C4[C@@H]5CC(C)(C)CC[C@@H]5C(=O)[C@H](O)[C@@]4(C)[C@]3(C)CC[C@@H]12`, the GI50 with ACHN was 41.4 µM (inactive); in the assay with COLO 205, > 50 µM (inactive); in the assay on EKVX it was > 50 µM (inactive); in the assay on HCC 2998 it was 20.4 µM (inactive); in the assay with HCT-15 it was > 50 µM; in the assay on HL-60, > 50 µM (inactive). Moreover, the GI50 in the assay with HT-29 is > 50 µM (inactive); in the assay with M14, > 50 µM (inactive); in the assay on MCF7, > 50 µM (inactive); in the assay on MDA-MB-231, > 50 µM (inactive); in the assay on MDA-N, 47.3 µM (inactive); in the assay on NCI-H460 it was > 50 µM (inactive). In addition, the GI50 is 16.6 µM (inactive) with NCI-H522; 40.4 µM (inactive) in the assay on OVCAR-4; 16.7 µM (inactive) in the assay on PC-3; > 50 µM (inactive) in the assay on SF-268; 17.3 µM (inactive) with SNB-75; 23.9 µM (inactive) in the assay with TK-10. Also, in the assay with UACC-257, the GI50 was > 50 µM (inactive).

In the case of `COc1ccc(OCC(=N/NC(=O)c2ccncc2)/N=C/c2cccnc2)cc1`, the GI50 in the assay with ACHN was 72.8 µM (inactive); in the assay on COLO 205, 64.6 µM (inactive); in the assay on EKVX, > 100 µM (inactive); in the assay with HCC 2998, 83.9 µM (inactive); in the assay on HCT-15, 60.7 µM; in the assay on HL-60, > 100 µM (inactive). Further, the GI50 in the assay on HT-29 was > 100 µM (inactive); in the assay on M14 it was 60.5 µM (inactive); in the assay on MCF7, 73.1 µM (inactive); in the assay with MDA-MB-231 it was > 100 µM (inactive); with MDA-N, 17 µM (inactive); in the assay on NCI-H460, > 100 µM (inactive). In addition, the GI50 is 13.1 µM (inactive) in the assay on NCI-H522; 96.6 µM (inactive) with OVCAR-4; > 100 µM (inactive) in the assay with PC-3; > 100 µM (inactive) in the assay on SF-268; 24.2 µM (inactive) with SNB-75; > 100 µM (inactive) with TK-10. In addition, in the assay on UACC-257, the GI50 was > 100 µM (inactive).

Take `Nc1ncnc2c1ccn2C/C=C/CO`: the GI50 in the assay on ACHN was > 100 µM (inactive); with COLO 205, > 100 µM (inactive); with EKVX it was > 100 µM (inactive); in the assay on HCC 2998, > 100 µM (inactive); with HCT-15 it was > 100 µM; with HL-60 it was > 100 µM (inactive). In addition, the GI50 in the assay on HT-29, in the assay with M14, in the assay on MCF7, in the assay on MDA-MB-231, in the assay on MDA-N and with NCI-H460 was > 100 µM (inactive) each time. Moreover, the GI50 in the assay with NCI-H522, in the assay with OVCAR-4, with PC-3, with SF-268, in the assay on SNB-75 and in the assay on TK-10 was > 100 µM (inactive) throughout. Further, the GI50 with UACC-257 was > 100 µM (inactive).

Turning to `COc1ccc2cc3c4cc5c(cc4cc[n+]3cc2c1OC)OCO5`, the GI50 with ACHN was 38.4 µM (inactive); in the assay with COLO 205, 2.08 µM (inactive); in the assay with EKVX, 6.22 µM (inactive); in the assay with HCC 2998, 22 µM (inactive); in the assay on HCT-15, 83.2 µM; in the assay with HL-60, 19.2 µM (inactive). Moreover, the GI50 is 26.3 µM (inactive) with HT-29; 15.2 µM (inactive) in the assay on M14; 20 µM (inactive) in the assay on MCF7; 23.4 µM (inactive) in the assay with MDA-MB-231; 7.52 µM (inactive) with MDA-N; 17.9 µM (inactive) in the assay on NCI-H460. In addition, the GI50 in the assay on NCI-H522 is 3.63 µM (inactive); in the assay with OVCAR-4, 20.6 µM (inactive); with PC-3, 14.2 µM (inactive); in the assay on SF-268, 2.94 µM (inactive); in the assay on SNB-75 it was 27.8 µM (inactive); in the assay with TK-10, 19.9 µM (inactive). In the assay with UACC-257, the GI50 is 6.46 µM (inactive).

As for `CN(C)C(=O)N1N[C@H](c2ccccc2)[C@@H]1c1ccccc1`, the GI50 in the assay on ACHN is > 100 µM (inactive); in the assay on COLO 205 it was > 100 µM (inactive); in the assay with EKVX, > 100 µM (inactive); in the assay with HCC 2998, > 100 µM (inactive); with HCT-15 it was > 100 µM; in the assay with M14, > 100 µM (inactive). Besides, the GI50 was > 100 µM (inactive) in the assay with MCF7; > 100 µM (inactive) in the assay on MDA-MB-231; > 100 µM (inactive) in the assay on MDA-N; > 100 µM (inactive) in the assay with NCI-H522; > 100 µM (inactive) with OVCAR-4; 48 µM (inactive) with PC-3. The GI50 in the assay with SNB-75, with TK-10 and in the assay with UACC-257 was > 100 µM (inactive) each time.

As to `Cc1c(N/C=C(\C#N)C(=O)c2ccc(Cl)cc2)c(=O)n(-c2ccccc2)n1C`, the GI50 is > 100 µM (inactive) in the assay on COLO 205; > 100 µM (inactive) in the assay on EKVX; > 100 µM (inactive) in the assay on HCC 2998; > 100 µM with HCT-15; 38.7 µM (inactive) in the assay with HL-60; > 100 µM (inactive) in the assay with M14. In addition, the GI50 in the assay with MCF7 is 62.1 µM (inactive); in the assay with MDA-MB-231, > 100 µM (inactive); in the assay on MDA-N it was > 100 µM (inactive); in the assay on NCI-H460, > 100 µM (inactive); in the assay with NCI-H522 it was > 100 µM (inactive); with OVCAR-4 it was > 100 µM (inactive). In addition, the GI50 with PC-3 was > 100 µM (inactive); in the assay on SNB-75, > 100 µM (inactive); in the assay on TK-10, 32.9 µM (inactive); in the assay with UACC-257, > 100 µM (inactive).

For `O=C(/C=C\c1ccccc1)Oc1ccc(/C=C2\CCCCC2=O)cc1`, the GI50 in the assay on ACHN was 37.2 µM (inactive); in the assay with COLO 205 it was 19.9 µM (inactive); in the assay on EKVX, 57.1 µM (inactive); with HCC 2998 it was 47.3 µM (inactive); in the assay with HCT-15, 23.3 µM; with HL-60, 14.9 µM (inactive). Further, the GI50 in the assay on HT-29 was 17.9 µM (inactive); with M14, 40.6 µM (inactive); with MCF7, 39.5 µM (inactive); with MDA-MB-231 it was 41.6 µM (inactive); with MDA-N it was 33.3 µM (inactive); in the assay with NCI-H460 it was 73.5 µM (inactive). The GI50 was 48 µM (inactive) with NCI-H522; > 100 µM (inactive) in the assay with OVCAR-4; 46.9 µM (inactive) in the assay with PC-3; 25.2 µM (inactive) in the assay with SF-268; > 100 µM (inactive) in the assay with SNB-75; 15.1 µM (inactive) with TK-10. Further, the GI50 with UACC-257 is 16.6 µM (inactive).

As for `Cc1cccc(/C=N/NC(=S)N2CCCCCC2)n1`, the GI50 in the assay on ACHN is 0.142 µM (active); in the assay with COLO 205, < 0.0269 µM (active); in the assay on EKVX it was 0.288 µM (active); with HCC 2998, 0.468 µM (active); in the assay with HCT-15, 0.049 µM; with HL-60, < 0.01 µM (active). In addition, the GI50 in the assay with HT-29 was < 0.01 µM (active); in the assay on M14, < 0.0271 µM (active); with MCF7 it was < 0.01 µM (active); with MDA-MB-231, < 0.01 µM (active); with MDA-N, 0.406 µM (active); with NCI-H460, 0.0977 µM (active). Moreover, the GI50 in the assay with NCI-H522 is < 0.01 µM (active); in the assay on PC-3 it was < 0.0166 µM (active); in the assay on SF-268, < 0.01 µM (active); in the assay with SNB-75, 0.135 µM (active); in the assay on UACC-257 it was 0.0418 µM (active).
